Values belong to the sequence of their own block, whether it stands above or below them.
Test system: GST-tagged Cn
Test: PEPperPRINT peptide microarray binding assay with GST-tagged Cn
How it was run: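 Qualitative binding: peptides printed on a PEPperPRINT microarray were incubated overnight at 4 °C with 1 mg/ml GST-tagged Cn, then detected with Alexa-Fluor 647 anti-GST antibody. Log fluorescence was baseline-corrected, averaged over duplicate spots, Z-normalized and averaged across five repeats.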

[1] = GST-tagged Cn, max over the chip spots listed under Location on chip
[2] = GST-tagged Cn, mean over the chip spots listed under Location on chip
[3] = GST-tagged Cn, max over the chip locations
[4] = GST-tagged Cn, mean over the chip locations
[5] = max over the spots listed under Location on chip
[6] = mean over the spots listed under Location on chip
[7] = max over the chip locations listed for the peptide (two spots)
[8] = mean over the chip locations listed for the peptide (two spots)
[9] = GST-tagged Cn, max over the spots named in Location on chip
[10] = GST-tagged Cn, mean over the spots named in Location on chip
[11] = GST-tagged Cn, max over the spots on the chip (two locations)
[12] = GST-tagged Cn, mean over the spots on the chip (two locations)

Sequence: THVEKVRFLIQPAGHP [Seqshuffled_9690]
Chip Fluorescence (max) [1]: 0.887
Chip Fluorescence (mean) [2]: -0.1564

Sequence: TNSHNPQVDLKIPQVR [SeqRBMlowT_6893]
Chip Fluorescence (max) [7]: 5.271
Chip Fluorescence (mean) [8]: 0.9753

Sequence: TPVSDHNFALDVSGKP [Seqshuffled_9616]
Chip Fluorescence (max) [9]: 1.846
Chip Fluorescence (mean) [10]: 0.06645

Sequence: TSPDQPCIDVHQSESE [SeqRBM_4309]
Chip Fluorescence (max) [5]: 2.7949
Chip Fluorescence (mean) [6]: 0.9383

Sequence: TTAMNPQFFVQIPRTA [SeqCAPN11_Daphnia_magna_2]
Chip Fluorescence (max) [7]: 9.6825
Chip Fluorescence (mean) [8]: 0.161

Sequence: TTLVIPQMRLTSEATF [SeqRBM_1117]
Chip Fluorescence (max) [7]: 5.611
Chip Fluorescence (mean) [8]: 1.324

Sequence: VACITWAAMLIIFSMV [Seqrandom_9980]
Chip Fluorescence (max) [1]: 0.9057
Chip Fluorescence (mean) [2]: -0.476

Sequence: VAQAFNVDGNCTQYWN [Seqrandom_9942]
Chip Fluorescence (max) [7]: 6.979
Chip Fluorescence (mean) [8]: 1.446

Sequence: VDIATNDLISELCNLC [Seqrandom_9952]
Chip Fluorescence (max) [7]: 4.084
Chip Fluorescence (mean) [8]: 0.2161

Sequence: VEEAFPQIIISAEELP [SeqTRESK_Tarsius_syrichta]
Chip Fluorescence (max) [9]: 1.401
Chip Fluorescence (mean) [10]: -0.4076

Sequence: VHQCTPEVSVSVCFTC [SeqRBM_8420]
Chip Fluorescence (max) [3]: 0.0911
Chip Fluorescence (mean) [4]: -0.9088

Sequence: VPDIGHMALHHDQIQP [Seqrandom_9983]
Chip Fluorescence (max) [1]: 0.5967
Chip Fluorescence (mean) [2]: -0.4753

Sequence: VQLKIPQLRVSSVSKP [SeqLCORL_2_Sus_scrofa]
Chip Fluorescence (max) [1]: 0.981
Chip Fluorescence (mean) [2]: -0.5484

Sequence: VSLKIPGSSAIDLTAS [SeqFLNA_Trichinella_nativa]
Chip Fluorescence (max) [3]: -0.0417
Chip Fluorescence (mean) [4]: -0.9527

Sequence: VSTDAPHSTRNDSGGP [SeqRBM_8532]
Chip Fluorescence (max) [11]: 0.9892
Chip Fluorescence (mean) [12]: -0.732

Sequence: VVMHKMPKTGGWWHCP [Seqrandom_9963]
Chip Fluorescence (max) [5]: 2.722
Chip Fluorescence (mean) [6]: 1.008

Sequence: VYWSNPQFIVKLEMVD [SeqRBM_6287]
Chip Fluorescence (max) [5]: 2.588
Chip Fluorescence (mean) [6]: 1.027

Sequence: WAGCDTWVFSIWRWIA [Seqrandom_10000]
Chip Fluorescence (max) [7]: 3.486
Chip Fluorescence (mean) [8]: 0.3128

Sequence: YPPGTPTKQGQQMAPS [SeqRTS1_Aspergillus_carbonarius]
Chip Fluorescence (max) [3]: -0.3471
Chip Fluorescence (mean) [4]: -1.955

Sequence: YRDSWVTACQKIQSKI [Seqrandom_9988]
Chip Fluorescence (max) [5]: 3.109
Chip Fluorescence (mean) [6]: 0.4888

Second part, the sequence after the results:

Chip Fluorescence (max) [1]: 0.7861
Chip Fluorescence (mean) [2]: -0.005549
Sequence: TGWTNPQFKLRLENDP [SeqRBM_4269]

Chip Fluorescence (max) [3]: 0.1716
Chip Fluorescence (mean) [4]: -0.4714
Sequence: THTKISSFRGDAEPAP [Seqshuffled_9494]

Chip Fluorescence (max) [5]: 3.2575
Chip Fluorescence (mean) [6]: 0.9321
Sequence: TLWTNPQYHITLPEED [SeqRBM_3002]

Chip Fluorescence (max) [11]: 0.9878
Chip Fluorescence (mean) [12]: -0.982
Sequence: TSSSLPTFNFSSSVIT [SeqNUP153_Canis_lupus]

Chip Fluorescence (max) [11]: 1.2864
Chip Fluorescence (mean) [12]: -7.047
Sequence: TTSTNPQIRITDHEDE [Seqshuffled_9411]

Chip Fluorescence (max) [11]: 1.271
Chip Fluorescence (mean) [12]: 0.8684
Sequence: TTWLVVFMIPELMKLS [Seqshuffled_9855]

Chip Fluorescence (max) [5]: 3.405
Chip Fluorescence (mean) [6]: 0.7303
Sequence: TYWTNPQFRVTLEDPD [SeqRBMlowT_4395]

Chip Fluorescence (max) [5]: 3.268
Chip Fluorescence (mean) [6]: 1.368
Sequence: VALVIRSTDKDDVGNY [SeqCEACAM5_Bactrocera_latifrons]

Chip Fluorescence (max) [5]: 3.238
Chip Fluorescence (mean) [6]: 1.278
Sequence: VETIRPGVVTEPMEAG [SeqRBM_4600]

Chip Fluorescence (max) [1]: 0.5427
Chip Fluorescence (mean) [2]: -0.6454
Sequence: VEYDKVWKVAQFVNKC [Seqrandom_9995]

Chip Fluorescence (max) [5]: 3.279
Chip Fluorescence (mean) [6]: -0.004599
Sequence: VFAQEDYFLFPVILKE [Seqrandom_9943]

Chip Fluorescence (max) [9]: 1.773
Chip Fluorescence (mean) [10]: 0.03485
Sequence: VFWANPQFEVTLREDD [SeqRBM_5060]

Chip Fluorescence (max) [3]: -0.5934
Chip Fluorescence (mean) [4]: -1.618
Sequence: VKLVIIQVRSASVDAN [SeqRBM_6437]

Chip Fluorescence (max) [5]: 2.788
Chip Fluorescence (mean) [6]: 0.6718
Sequence: VNLPIPAVQLADSGAY [SeqRBM_1417]

Chip Fluorescence (max) [11]: 1.006
Chip Fluorescence (mean) [12]: -4.049
Sequence: VQLFIHLPSSDDTGSY [SeqRBM_6875]

Chip Fluorescence (max) [1]: 0.7129
Chip Fluorescence (mean) [2]: -0.8346
Sequence: VRFTLPEKQVHSSAPS [SeqRBM_2315]

Chip Fluorescence (max) [5]: 2.638
Chip Fluorescence (mean) [6]: 0.5735
Sequence: VSLYEDALGLGQFSLS [SeqRBM_4294]

Chip Fluorescence (max) [5]: 2.629
Chip Fluorescence (mean) [6]: -0.3443
Sequence: YFFDRDTGAGKIEQEH [Seqrandom_9991]
